Data as given in US9399646B2 (Genentech, Inc., priority 2010, dated 2016).
pIC50: −log10 of the molar value.

What was measured:
MCF-7 cells = assay: Breast cancer cell viability assay (CellTiter-Glo, 5 days); assay type: cell-based; details: 5 days' compound exposure; for pIC50: Homo sapiens, MCF7, 120 h
Outline: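 MCF-7 cells, 320 per well in RPMI with 10% FBS and 20 mM HEPES, adhered overnight, then exposed 5 days to an eleven-point semilog dilution (final 0.3-0.000003 μM). CellTiter-Glo luminescence read; % viability = (sample − cell-free background)/(untreated − background) × 100.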

ER-α in MCF-7 cells = target: T1, ER-α in MCF-7 cells (Homo sapiens, UniProt P03372); assay: Breast cancer cell ER-α in cell western assay (SP1); assay type: cell-based; design: endogenous in cells; host or cells: MCF-7; details: 4 or 24 hr post compound addition; for Emax: MCF7, SP1 antibody, read-out: ER-α In Cell Western Assay (SP1) Max Response; for DC50: SP1 antibody, read-out: ER-α In Cell Western Assay (SP1) IC50
T1 sequence (P03372 1-595): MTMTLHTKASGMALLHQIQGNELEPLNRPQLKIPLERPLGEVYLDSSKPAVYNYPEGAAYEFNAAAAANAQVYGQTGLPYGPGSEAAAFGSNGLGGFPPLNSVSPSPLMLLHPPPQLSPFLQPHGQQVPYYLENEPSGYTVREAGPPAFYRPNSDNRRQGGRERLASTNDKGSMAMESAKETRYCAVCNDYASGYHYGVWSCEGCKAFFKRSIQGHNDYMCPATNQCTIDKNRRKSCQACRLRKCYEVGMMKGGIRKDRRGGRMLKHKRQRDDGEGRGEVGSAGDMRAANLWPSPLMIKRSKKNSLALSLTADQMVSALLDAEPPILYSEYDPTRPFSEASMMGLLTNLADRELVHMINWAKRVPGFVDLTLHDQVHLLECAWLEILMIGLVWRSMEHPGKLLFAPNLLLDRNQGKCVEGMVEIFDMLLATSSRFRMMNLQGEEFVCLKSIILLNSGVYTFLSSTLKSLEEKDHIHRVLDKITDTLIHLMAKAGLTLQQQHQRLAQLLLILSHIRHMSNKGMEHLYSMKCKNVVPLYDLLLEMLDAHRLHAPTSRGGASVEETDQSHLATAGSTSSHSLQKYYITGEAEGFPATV
Outline: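 Fixed cells were immunostained with SP1 anti-ER antibody; ER signal (800 nm) was normalized to DRAQ5 DNA signal (700 nm) and expressed as % of untreated cells.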

pIC50 (MCF-7 cells)	Emax (ER-α in MCF-7 cells) [%]	DC50 (ER-α in MCF-7 cells) [nM]	SMILES	MCF7 Viability Assay Max Response (MCF-7 cells)
< 7.00	≥ 40	> 100	CCCCCCOc1ccc(/C(CC)=C(\c2ccc(/C=C/C(=O)O)cc2)c2ccc3[nH]ncc3c2)cc1 [Compound 357, (E)-3-(4-((E)-2-(4-(Hexyloxy)phenyl)-1-(1H-indazol-5-yl)but-1-en-1-yl)phenyl)acrylic acid]	++ (++ = a single % value ≧ 40%)
≥ 7.00	≥ 40	≤ 100	CC/C(=C(/c1ccc(/C=C/C(=O)O)cc1)c1ccc2[nH]ncc2c1)c1cccc(OCc2ccccc2)c1 [Compound 358, (E)-3-(4-((E)-2-(3-(Benzyloxy)phenyl)-1-(1H-indazol-5-yl)but-1-en-1-yl)phenyl)acrylic acid]	++ (++ = a single % value ≧ 40%)
≥ 7.00	≥ 40	≤ 100	CC/C(=C(/c1ccc(/C=C/C(=O)O)cc1)c1ccc2[nH]ncc2c1)c1cccc(OCc2cccnc2)c1 [Compound 359, (E)-3-(4-((E)-1-(1H-Indazol-5-yl)-2-(3-(pyridin-3-ylmethoxy)phenyl)but-1-en-1-yl)phenyl)acrylic acid]	++ (++ = a single % value ≧ 40%)
< 7.00	≥ 40	> 100	CC/C(=C(/c1ccc(/C=C/C(=O)O)cc1)c1ccc2[nH]ncc2c1)c1ccc(OCCO)cc1 [Compound 360, (E)-3-(4-((E)-2-(4-(2-Hydroxyethoxy)phenyl)-1-(1H-indazol-5-yl)but-1-en-1-yl)phenyl)acrylic acid]	++ (++ = a single % value ≧ 40%)
≥ 7.00	≥ 40	≤ 100	CC/C(=C(/c1ccc(/C=C/C(=O)O)cc1)c1ccc2[nH]ncc2c1)c1cccc(Oc2ccccn2)c1 [Compound 362, (E)-3-(4-((E)-1-(1H-Indazol-5-yl)-2-(3-(pyridin-2-yloxy)phenyl)but-1-en-1-yl)phenyl)acrylic acid]	++ (++ = a single % value ≧ 40%)
≥ 7.00	≥ 40	≤ 100	CC/C(=C(/c1ccc(/C=C/C(=O)O)cc1)c1ccc2[nH]ncc2c1)c1cccc(Oc2ncccn2)c1 [Compound 363, (E)-3-(4-((E)-1-(1H-Indazol-5-yl)-2-(3-(pyrimidin-2-yloxy)phenyl)but-1-en-1-yl)phenyl)acrylic acid]	++ (++ = a single % value ≧ 40%)
≥ 7.00	≥ 40	≤ 100	CC/C(=C(/c1ccc(/C=C/C(=O)O)cc1)c1ccc2[nH]ncc2c1)c1cccc(Oc2ccncn2)c1 [Compound 364, (E)-3-(4-((E)-1-(1H-Indazol-5-yl)-2-(3-(pyrimidin-4-yloxy)phenyl)but-1-en-1-yl)phenyl)acrylic acid]	++ (++ = a single % value ≧ 40%)
≥ 7.00	≥ 40	≤ 100	CC/C(=C(/c1ccc(/C=C/C(=O)O)cc1)c1ccc2[nH]ncc2c1)c1cccc(Oc2cccnc2)c1 [Compound 365, (E)-3-(4-((E)-1-(1H-Indazol-5-yl)-2-(3-(pyridin-3-yloxy)phenyl)but-1-en-1-yl)phenyl)acrylic acid]	++ (++ = a single % value ≧ 40%)
≥ 7.00	≥ 40	≤ 100	CC/C(=C(/c1ccc(/C=C/C(=O)O)cc1)c1ccc2[nH]ncc2c1)c1cccc(Oc2ccncc2)c1 [Compound 366, (E)-3-(4-((E)-1-(1H-Indazol-5-yl)-2-(3-(pyridin-4-yloxy)phenyl)but-1-en-1-yl)phenyl)acrylic acid]	++ (++ = a single % value ≧ 40%)
≥ 7.00	≥ 40	≤ 100	CC/C(=C(/c1ccc(/C=C/C(=O)O)cc1)c1ccc2[nH]ncc2c1)c1cccc(Oc2ccccc2F)c1 [Compound 367, (E)-3-(4-((E)-2-(3-(2-Fluorophenoxy)phenyl)-1-(1H-indazol-5-yl)but-1-en-1-yl)phenyl)acrylic acid]	++ (++ = a single % value ≧ 40%)
≥ 7.00	≥ 40	≤ 100	CC/C(=C(/c1ccc(/C=C/C(=O)O)cc1)c1ccc2[nH]ncc2c1)c1cccc(Oc2ccccc2C)c1 [Compound 368, (E)-3-(4-((E)-1-(1H-Indazol-5-yl)-2-(3-(o-tolyloxy)phenyl)but-1-en-1-yl)phenyl)acrylic acid]	++ (++ = a single % value ≧ 40%)
< 7.00	≥ 40	≤ 100	CC/C(=C(/c1ccc(/C=C/C(=O)O)cc1)c1ccc2[nH]ncc2c1)c1cccc(Oc2cncnc2)c1 [Compound 369, (E)-3-(4-((E)-1-(1H-Indazol-5-yl)-2-(3-(pyrimidin-5-yloxy)phenyl)but-1-en-1-yl)phenyl)acrylic acid]	++ (++ = a single % value ≧ 40%)
≥ 7.00	≥ 40	≤ 100	CC/C(=C(/c1ccc(/C=C/C(=O)O)cc1)c1ccc2[nH]ncc2c1)c1cccc(Oc2nccs2)c1 [Compound 370, (E)-3-(4-((E)-1-(1H-Indazol-5-yl)-2-(3-(thiazol-2-yloxy)phenyl)but-1-en-1-yl)phenyl)acrylic acid]	++ (++ = a single % value ≧ 40%)
≥ 7.00	≥ 40	≤ 100	CC/C(=C(/c1ccc(/C=C/C(=O)O)cc1)c1ccc2[nH]ncc2c1)c1cccc(Oc2cnccn2)c1 [Compound 371, (E)-3-(4-((E)-1-(1H-Indazol-5-yl)-2-(3-(pyrazin-2-yloxy)phenyl)but-1-en-1-yl)phenyl)acrylic acid]	++ (++ = a single % value ≧ 40%)
< 7.00	≥ 40	≤ 100	CC/C(=C(/c1ccc(/C=C/C(=O)O)cc1)c1ccc2[nH]ncc2c1)c1cccc(Oc2ccncc2C(F)(F)F)c1 [Compound 372, (E)-3-(4-((E)-1-(1H-Indazol-5-yl)-2-(3-((3-(trifluoromethyl)pyridin-4-yl)oxy)phenyl)but-1-en-1-yl)phenyl)acrylic acid]	++ (++ = a single % value ≧ 40%)
≥ 7.00	≥ 40	≤ 100	CC/C(=C(/c1ccc(/C=C/C(=O)O)cc1)c1ccc2[nH]ncc2c1)c1cccc(Oc2ccc(S(C)(=O)=O)cc2)c1 [Compound 373, (E)-3-(4-((E)-1-(1H-Indazol-5-yl)-2-(3-(4-(methylsulfonyl)phenoxy)phenyl)but-1-en-1-yl)phenyl)acrylic acid]	++ (++ = a single % value ≧ 40%)
< 7.00	≥ 40	> 100	CC/C(=C(/c1ccc(/C=C/C(=O)O)cc1)c1ccc2[nH]ncc2c1)c1cccc(Oc2ccccc2S(C)(=O)=O)c1 [Compound 374, (E)-3-(4-((E)-1-(1H-Indazol-5-yl)-2-(3-(2-(methylsulfonyl)phenoxy)phenyl)but-1-en-1-yl)phenyl)acrylic acid]	++ (++ = a single % value ≧ 40%)
≥ 7.00	≥ 40	≤ 100	CC/C(=C(/c1ccc(/C=C/C(=O)O)cc1)c1ccc2[nH]ncc2c1F)c1cccc(Oc2ccccn2)c1 [Compound 375, (E)-3-(4-((E)-1-(4-Fluoro-1H-indazol-5-yl)-2-(3-(pyridin-2-yloxy)phenyl)but-1-en-1-yl)phenyl)acrylic acid]	++ (++ = a single % value ≧ 40%)
≥ 7.00	≥ 40	≤ 100	CC/C(=C(/c1ccc(/C=C/C(=O)O)cc1)c1ccc2[nH]ncc2c1F)c1cccc(Oc2ncccn2)c1 [Compound 376, (E)-3-(4-((E)-1-(4-Fluoro-1H-indazol-5-yl)-2-(3-(pyrimidin-2-yloxy)phenyl)but-1-en-1-yl)phenyl)acrylic acid]	++ (++ = a single % value ≧ 40%)
≥ 7.00	≥ 40	≤ 100	CC/C(=C(/c1ccc(/C=C/C(=O)O)cc1)c1ccc2[nH]ncc2c1F)c1cccc(Oc2cnccn2)c1 [Compound 377, (E)-3-(4-((E)-1-(4-Fluoro-1H-indazol-5-yl)-2-(3-(pyrazin-2-yloxy)phenyl)but-1-en-1-yl)phenyl)acrylic acid]	++ (++ = a single % value ≧ 40%)
